Results reported in paper PMC4850106 (Journal of medicinal chemistry, 2016).

How the values were obtained:
BBB-PAMPA assay = type: in vitro ADME, porcine; settings: 500 µM in donor, 4 h
[1] = In vitro human BBB cell-based model; type: in vitro ADME; settings: human
[2] = system: brain-like endothelial cells cocultured with pericytes; assay: In vitro human BBB cell-based model; type: in vitro ADME; settings: cell-based BBB model, 200 µM, 2 h
Sprague–Dawley rats = assay: Respiratory effects by whole body plethysmography in rats; type: in vivo; settings: iv, 13a 0.5 mg/kg, morphine 5 mg/kg
mice (C57BL6) = settings: acute pain, increased dosing ref 73; cited from earlier work
neuropathic mice = settings: neuropathic conditions ref 73; cited from earlier work
human NOP = human NOP (Homo sapiens, UniProt P41146); settings: read-out: Ki for the human NOP; cited from earlier work
Sequence of human NOP (P41146 whole entry): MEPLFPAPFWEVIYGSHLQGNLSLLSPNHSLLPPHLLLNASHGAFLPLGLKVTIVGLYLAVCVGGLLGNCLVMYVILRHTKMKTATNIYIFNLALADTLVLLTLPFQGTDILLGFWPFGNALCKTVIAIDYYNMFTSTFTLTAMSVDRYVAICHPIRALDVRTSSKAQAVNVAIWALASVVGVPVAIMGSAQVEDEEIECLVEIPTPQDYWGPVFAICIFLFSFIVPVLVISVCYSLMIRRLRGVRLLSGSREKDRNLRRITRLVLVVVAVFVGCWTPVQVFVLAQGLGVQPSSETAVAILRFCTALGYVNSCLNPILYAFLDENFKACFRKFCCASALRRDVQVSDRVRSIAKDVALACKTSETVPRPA

CC[C@H](C)[C@H](NC(=O)[C@H](CCCN=C(N)N)NC(=O)[C@H](Cc1ccc(O)cc1)NC(=O)[C@H](Cc1ccc(O)cc1)NC(=O)[C@H](CCCN=C(N)N)NC(C)=O)C(=O)N[C@@H](CCCCN)C(N)=O [compound 8, Ac-Arg-Tyr-Tyr-Arg-Ile-Lys-NH2]
transport (%) (BBB-PAMPA assay): 0.15% | Papp A→B at 2 h, 200 µM [1]: 8.4 ×10⁻⁶ cm/s | mass balance (%) [2]: 95% | transport (%) [2]: 14%

CN1CC[C@]23c4c5ccc(O)c4O[C@H]2[C@@H](O)C=C[C@H]3[C@H]1C5 [morphine]
inspiratory time (Sprague–Dawley rats): significant increase in inspiratory time | respiratory frequency (Sprague–Dawley rats): decrease in respiratory frequency | respiratory depression (ventilation minute) (Sprague–Dawley rats; vs saline, AUC): deleterious effect | %MPE in tail-flick test upon increased dosing (mice (C57BL6)): 100 %MPE | sustained %MPE no matter how high the dose (neuropathic mice): about 50 %MPE

Ac-Arg-Tyr-Tyr-Arg-Trp-Arg-NH2 (Ac-RYYRWR-NH2)
Ki (human NOP): 0.1 nM
